Results from publication PMC12655819 (Pharmaceuticals, 2025).
Like-named read-outs stand apart in the source and are kept apart here. Marks after values point to notes of the source that are not given here.

Test: Pharmacokinetics from dried saliva collected with Mitra VAMS (vsMPA, vsMPAG)
Type: in vivo, human
Conditions: for Cmax: dried saliva (Mitra VAMS 20 µL), 0–4 h post-dose; for AUC(0–4) Normalized to Drug Dose: normalized to MMF dose
Protocol: The AUC0–4, Tmax, and Cmax parameters were calculated using the R (version 4.5.1) package software (R Core Team, 2025), supported by RStudio (version 2025.05.1+513) from Posit PBC software (Boston, MA, USA). […] The vMPA and vMPAG capillary blood levels were corrected using formulas validated in our department (partially published by Kocur et al.) and expressed as estimated capillary plasma concentrations. […] Individual PK profiles for each patient included in the study are provided in the Supplementary File (Figures S4 and S5).
Samples were sonicated (36 °C, 30 min), vortexed (15 min), and frozen (−20 °C, 15 min). After centrifugation (10 min, 25,155× g), 350 µL of supernatant was transferred to a total recovery borosilicate vial (Finneran, Vineland, NJ, USA) and evaporated to dryness under a stream of nitrogen (40 °C) using Ultravap® Levante (Porvair, Hampshire, Great Britain). The residue was reconstituted in 150 µL of mobile phase A, filtered in a Verex™ vial, and 5 µL was injected into the LC–MS/MS system. Analyses were performed at the Department of Drug Chemistry, Pharmaceutical and Biomedical Analysis, Medical University of Warsaw, Poland.
Additionally, the unstimulated saliva samples were simultaneously collected using the Salivette® device (Sarstedt, Nümbrecht, Germany) and Mitra™ 20 µL microsampling tips (Neoteryx/Trajan, Torrance, CA, USA (all saliva samples simultaneously to plasma and capillary blood sampling: 0, 0.5, 1, 2, and 4 h after drug administration). Patients had not eaten for at least 30 min before saliva collection, and their mouths were rinsed with water. The study was conducted in accordance with the Declaration of Helsinki and the International Council for Harmonization Guideline for Good Clinical Practice. The protocol was approved by the Bioethics Committee of the Children’s Memorial Health Institute, Warsaw, Poland (approval No. 15/KBE/2023, with subsequent amendments). Written informed consent was obtained from all participants and their legal guardians.

[1] = dried saliva (Mitra VAMS), n = 20, mean (range)
[2] = dried saliva (Mitra VAMS), pediatric renal transplant recipients (n = 20) on MMF, mean (range)

COc1c(C)c2c(c(O[C@@H]3O[C@H](C(=O)O)[C@@H](O)[C@H](O)[C@H]3O)c1C/C=C(\C)CCC(=O)O)C(=O)OC2 [MPAG, mycophenolic acid glucuronide]
Cmax (pediatric renal transplant recipients (n = 20) on MMF, mean (range)): 70.30 (19.04–146.54) µg/L
C0 concentration (dried saliva (Mitra VAMS), 0 h (pre-dose), n = 20, mean ± SD): 0.017834 ± 0.012122 µg/mL
C0.5 concentration (dried saliva (Mitra VAMS), 0.5 h post-dose, n = 20, mean ± SD): 0.037704 ± 0.024598 µg/mL
C1 concentration (dried saliva (Mitra VAMS), 1 h post-dose, n = 20, mean ± SD): 67.422 ± 44.462 µg/L
C2 concentration (dried saliva (Mitra VAMS), 2 h post-dose, n = 20, mean ± SD): 39.258 ± 25.317 µg/L
C4 concentration (dried saliva (Mitra VAMS), 4 h post-dose, n = 20, mean ± SD): 19.762 ± 13.638 µg/L
AUC(0–4) Normalized to Drug Dose [1]: 335.45 (115.15–902.00) ^c µg × h/mL × g
AUC(0–4) [2]: 0.145 µg·h/mL
Tmax [2]: 1.03 (0.50–2.00) h

COc1c(C)c2c(c(O)c1C/C=C(\C)CCC(=O)O)C(=O)OC2 [MPA, Mycophenolic acid]
AUC(0–4) Normalized to Drug Dose [1]: 305.78 (33.88–2937.03) ^c µg × h/mL × g
Cmax (human, pediatric renal transplant recipients (n = 20) on MMF, mean (range), read-out: Cmax): 0.0841 µg/mL
concentration at 0 h (human, dried saliva (Mitra VAMS), 0 h (pre-dose), n = 20, mean ± SD, read-out: C0 concentration): 0.00754 ± 0.00489 µg/mL
concentration at 0.5 h (human, dried saliva (Mitra VAMS), 0.5 h post-dose, n = 20, mean ± SD, read-out: C0.5 concentration): 0.0277 ± 0.00914 µg/mL
concentration at 1 h (human, dried saliva (Mitra VAMS), 1 h post-dose, n = 20, mean ± SD, read-out: C1 concentration): 0.0522 ± 0.0409 µg/mL
concentration at 2 h (human, dried saliva (Mitra VAMS), 2 h post-dose, n = 20, mean ± SD, read-out: C2 concentration): 0.0171 ± 0.0167 µg/mL
concentration at 4 h (human, dried saliva (Mitra VAMS), 4 h post-dose, n = 20, mean ± SD, read-out: C4 concentration): 0.00725 ± 0.00803 µg/mL
Tmax (human, dried saliva (Mitra VAMS), pediatric renal transplant recipients (n = 20) on MMF, mean (range), read-out: Tmax): 51 min
